Data set [1] can be described thus: Phenytoin precipitation inhibition in PBS containing dissolved polymer. It is filed as physicochemical. The note with it: PBS pH 6.5, 37° C., 500 μg/mL if all dissolved. Here is the method: Phenyloin was dissolved in methanol at a concentration of 18 mg/mL. The polymers were dissolved in PBS (20 mM sodium phosphate (Na2HPO4), 47 mM potassium phosphate (KH2PO4), 87 mM NaCl, and 0.2 mM KCl, adjusted to pH 6.5 with NaOH) at a concentration of 1.5 mg/mL. […] HPLC was performed using a ZORBAX® RX-C18 column (4.6×75 mm, 3.5 μm, Agilent Technologies) and a mobile phase comprising 0.2% H3PO4 in water, at a flow rate of 1.0 mL/min; 10 μL of each solution was injected. […] HPMCAS-K(3) and HPMCAS-LG have similar degrees of succinate substitution ([…], respectively (see Table 7)), but greatly different degrees of acetate substitution (1.41 and 0.47, respectively).

Data set [2] can be described thus: Microcentrifuge dissolution of 25 wt % phenytoin spray-dried dispersions in MFDS. It is filed as physicochemical. The note with it: dissolved phenytoin; SDD or bulk in MFDS pH 6.5, 37° C. The source says:
In another separate embodiment, compositions containing the HPMCAS polymers are concentration enhancing. The term “concentration enhancing” means that the polymer is present in a sufficient amount in the composition so as to improve, or increase, the concentration of dissolved active agent in an aqueous use environment relative to a control composition free from the polymer. As used herein, a “use environment” can be either the in vivo environment of the gastrointestinal tract, subdermal, intranasal, buccal, intrathecal, ocular, intraaural, subcutaneous spaces, vaginal tract, arterial and venous blood vessels, pulmonary tract or intramuscular tissue of an animal, such as a mammal and particularly a human, or the in vitro environment of a test solution, such as phosphate buffered saline (PBS), simulated intestinal buffer without enzymes (SIN), a Model Fasted Duodenal (MFD) solution, or a solution to model the fed state. Concentration enhancement may be determined through either in vitro dissolution tests or through in vivo tests. It has been determined that enhanced active agent concentrations in in vitro dissolution tests in such in vitro test solutions provide good indicators of in vivo performance and bioavailability. An appropriate PBS solution is an aqueous solution comprising 20 mM sodium phosphate (Na2HPO4), 47 mM potassium phosphate (KH2PO4), 87 mM NaCl, and 0.2 mM KCl, adjusted to pH 6.5 with NaOH. An appropriate SIN solution is 50 mM KH2PO4 adjusted to pH 7.4. […] In particular, a composition may be dissolution-tested by adding it to an in vitro test solution and agitating to promote dissolution, or by performing a membrane-permeation test as described in U.S. Published Patent Application No. 2008/0262107, which is incorporated herein by reference. Spray-dried dispersions (SDDs) comprising 25 wt % phenyloin in HPMCAS-K(3), HPMCAS-K(1), HPMCAS-HG, and HPMCAS-LG were prepared as described in section VIII. […] Dissolved concentrations were measured by HPLC.

Results on 1 molecule are retold here after patent publication US9040033B2, “Hydroxypropyl methyl cellulose acetate succinate with enhanced acetate and succinate substitution” (Dow Global Technologies LLC, priority 2010, dated 2015).

As to `O=C1NC(=O)C(c2ccccc2)(c2ccccc2)N1` [Phenytoin bulk, Phenytoin], the C1200 in data set [1] (dissolved phenytoin at 1200 min) came to 80 µg/mL; in data set [2], 40 µg/mL. Further, the AUC90 is 6,500 min * μg/mL in data set [1] (dissolved phenytoin, 0-90 min) and 3,500 min * μg/mL in data set [2]. The Cmax90 in data set [1] (dissolved phenytoin, maximum in first 90 min) was determined as 120 µg/mL; in data set [2] it was 40 µg/mL.
